Source: ChEMBL document CHEMBL1152560, “Substituted 2-arylbenzothiazoles as kinase inhibitors: hit-to-lead optimization” (Bioorg Med Chem, 2009)

How the values were obtained:
[1] = molecular target: Non-receptor tyrosine-protein kinase TYK2 (Homo sapiens) (UniProt P29597); experiment: Residual activity of TYK2 at 1 uM by microplate scintillation counting
[2] = molecular target: Serine/threonine-protein kinase PAK 6 (Homo sapiens) (UniProt Q9NQU5); experiment: Residual activity of PAK6 at 0.1 uM by microplate scintillation counting
Chain of Serine/threonine-protein kinase PAK 6 (Homo sapiens) (Q9NQU5 whole entry, looked up): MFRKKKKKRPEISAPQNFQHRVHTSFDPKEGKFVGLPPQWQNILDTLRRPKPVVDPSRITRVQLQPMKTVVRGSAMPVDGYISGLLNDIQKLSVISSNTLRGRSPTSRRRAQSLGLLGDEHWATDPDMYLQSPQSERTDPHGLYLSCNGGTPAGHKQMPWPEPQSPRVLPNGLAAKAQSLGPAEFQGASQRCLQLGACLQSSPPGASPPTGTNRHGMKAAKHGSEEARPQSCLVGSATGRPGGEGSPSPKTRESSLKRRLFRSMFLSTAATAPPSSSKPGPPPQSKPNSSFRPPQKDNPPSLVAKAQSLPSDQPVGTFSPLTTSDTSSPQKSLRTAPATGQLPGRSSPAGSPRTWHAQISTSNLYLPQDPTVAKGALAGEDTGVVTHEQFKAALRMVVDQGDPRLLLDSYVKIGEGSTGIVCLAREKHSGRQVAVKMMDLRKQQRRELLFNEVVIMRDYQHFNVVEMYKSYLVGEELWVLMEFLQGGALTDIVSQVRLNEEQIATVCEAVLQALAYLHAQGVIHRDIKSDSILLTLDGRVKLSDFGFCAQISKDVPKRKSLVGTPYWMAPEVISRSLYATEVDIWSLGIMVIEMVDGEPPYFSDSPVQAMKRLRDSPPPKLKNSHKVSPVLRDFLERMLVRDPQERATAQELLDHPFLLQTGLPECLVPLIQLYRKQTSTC

[3] = molecular target: 5'-AMP-activated protein kinase catalytic subunit alpha-1 (Homo sapiens) (UniProt Q13131); experiment: Residual activity of AMPK-alpha1 fl at 10 uM by microplate scintillation counting
Chain of 5'-AMP-activated protein kinase catalytic subunit alpha-1 (Homo sapiens) (Q13131 whole entry, looked up): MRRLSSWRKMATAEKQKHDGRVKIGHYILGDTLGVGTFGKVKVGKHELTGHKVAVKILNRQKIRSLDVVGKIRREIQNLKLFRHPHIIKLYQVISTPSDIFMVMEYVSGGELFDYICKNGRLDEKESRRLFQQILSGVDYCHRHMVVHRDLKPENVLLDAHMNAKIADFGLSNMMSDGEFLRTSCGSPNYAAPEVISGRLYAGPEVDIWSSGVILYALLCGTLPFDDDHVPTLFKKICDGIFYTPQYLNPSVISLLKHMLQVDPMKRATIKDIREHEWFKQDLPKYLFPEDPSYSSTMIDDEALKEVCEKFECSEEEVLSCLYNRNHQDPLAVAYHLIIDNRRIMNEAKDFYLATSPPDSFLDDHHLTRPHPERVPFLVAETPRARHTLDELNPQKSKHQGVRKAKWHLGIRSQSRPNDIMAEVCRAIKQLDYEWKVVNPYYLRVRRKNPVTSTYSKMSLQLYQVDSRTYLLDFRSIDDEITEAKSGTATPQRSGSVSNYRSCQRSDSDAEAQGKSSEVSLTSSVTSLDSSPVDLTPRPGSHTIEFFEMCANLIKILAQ

[4] = molecular target: T1, Activin receptor type-1B (Homo sapiens) (UniProt P36896); experiment: Residual activity of ACVR1B at 0.1 uM by microplate scintillation counting
T1 sequence (whole entry): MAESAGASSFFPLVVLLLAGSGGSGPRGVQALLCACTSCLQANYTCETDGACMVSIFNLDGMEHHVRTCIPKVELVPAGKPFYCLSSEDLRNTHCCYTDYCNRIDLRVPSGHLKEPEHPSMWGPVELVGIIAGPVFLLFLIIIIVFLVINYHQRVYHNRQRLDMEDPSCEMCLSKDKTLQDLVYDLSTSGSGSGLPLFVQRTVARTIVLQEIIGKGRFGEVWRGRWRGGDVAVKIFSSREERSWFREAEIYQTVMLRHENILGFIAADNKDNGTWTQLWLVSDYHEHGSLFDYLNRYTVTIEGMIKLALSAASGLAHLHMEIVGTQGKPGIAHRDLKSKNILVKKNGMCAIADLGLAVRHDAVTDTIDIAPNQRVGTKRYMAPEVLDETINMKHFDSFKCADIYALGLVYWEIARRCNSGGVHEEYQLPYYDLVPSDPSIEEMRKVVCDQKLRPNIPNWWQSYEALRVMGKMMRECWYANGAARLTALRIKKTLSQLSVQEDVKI

[5] = molecular target: T2, Serine/threonine-protein kinase Nek1 (Homo sapiens) (UniProt Q96PY6); experiment: Residual activity of NEK1 at 0.1 uM by microplate scintillation counting
T2 sequence (whole entry): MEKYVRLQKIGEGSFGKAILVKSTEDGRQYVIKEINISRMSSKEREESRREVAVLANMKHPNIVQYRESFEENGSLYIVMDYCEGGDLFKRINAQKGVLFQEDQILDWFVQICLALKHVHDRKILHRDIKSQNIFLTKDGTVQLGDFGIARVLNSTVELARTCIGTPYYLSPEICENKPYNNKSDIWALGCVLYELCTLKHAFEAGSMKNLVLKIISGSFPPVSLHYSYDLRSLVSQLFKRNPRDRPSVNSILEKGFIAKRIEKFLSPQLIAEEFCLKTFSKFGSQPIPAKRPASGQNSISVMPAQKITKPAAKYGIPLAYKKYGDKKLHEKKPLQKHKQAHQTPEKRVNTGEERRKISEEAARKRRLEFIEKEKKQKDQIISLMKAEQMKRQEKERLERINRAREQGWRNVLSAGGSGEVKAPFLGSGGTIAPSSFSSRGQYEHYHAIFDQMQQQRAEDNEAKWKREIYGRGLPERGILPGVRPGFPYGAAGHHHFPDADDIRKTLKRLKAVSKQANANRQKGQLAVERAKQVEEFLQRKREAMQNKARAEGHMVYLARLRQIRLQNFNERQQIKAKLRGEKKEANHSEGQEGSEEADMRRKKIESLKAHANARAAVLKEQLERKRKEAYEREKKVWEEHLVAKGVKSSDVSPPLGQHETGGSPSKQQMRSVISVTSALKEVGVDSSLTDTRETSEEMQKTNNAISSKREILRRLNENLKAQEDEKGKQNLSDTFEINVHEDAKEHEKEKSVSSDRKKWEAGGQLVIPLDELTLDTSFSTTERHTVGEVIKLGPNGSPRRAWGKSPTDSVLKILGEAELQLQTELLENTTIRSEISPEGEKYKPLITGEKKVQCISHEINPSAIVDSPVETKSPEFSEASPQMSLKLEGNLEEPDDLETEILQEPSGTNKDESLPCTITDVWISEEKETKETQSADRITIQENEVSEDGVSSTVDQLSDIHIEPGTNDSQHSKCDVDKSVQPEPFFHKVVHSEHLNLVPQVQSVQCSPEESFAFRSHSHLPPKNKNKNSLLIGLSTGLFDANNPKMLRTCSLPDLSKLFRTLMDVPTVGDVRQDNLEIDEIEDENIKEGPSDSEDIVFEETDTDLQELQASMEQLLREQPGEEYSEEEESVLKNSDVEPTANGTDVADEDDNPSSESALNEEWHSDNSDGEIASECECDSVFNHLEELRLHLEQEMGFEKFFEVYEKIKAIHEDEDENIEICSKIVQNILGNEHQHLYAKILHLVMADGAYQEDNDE

[6] = test system: RAF proto-oncogene serine/threonine-protein kinase (Homo sapiens), P04049 [Y340D,Y341D]; experiment: Residual activity of RAF1 Y340D/Y341D mutant at 10 uM by microplate scintillation counting
[7] = molecular target: T3, Tyrosine-protein kinase ZAP-70 (Homo sapiens) (UniProt P43403); experiment: Residual activity of ZAP70 at 10 uM by microplate scintillation counting
T3 sequence (whole entry): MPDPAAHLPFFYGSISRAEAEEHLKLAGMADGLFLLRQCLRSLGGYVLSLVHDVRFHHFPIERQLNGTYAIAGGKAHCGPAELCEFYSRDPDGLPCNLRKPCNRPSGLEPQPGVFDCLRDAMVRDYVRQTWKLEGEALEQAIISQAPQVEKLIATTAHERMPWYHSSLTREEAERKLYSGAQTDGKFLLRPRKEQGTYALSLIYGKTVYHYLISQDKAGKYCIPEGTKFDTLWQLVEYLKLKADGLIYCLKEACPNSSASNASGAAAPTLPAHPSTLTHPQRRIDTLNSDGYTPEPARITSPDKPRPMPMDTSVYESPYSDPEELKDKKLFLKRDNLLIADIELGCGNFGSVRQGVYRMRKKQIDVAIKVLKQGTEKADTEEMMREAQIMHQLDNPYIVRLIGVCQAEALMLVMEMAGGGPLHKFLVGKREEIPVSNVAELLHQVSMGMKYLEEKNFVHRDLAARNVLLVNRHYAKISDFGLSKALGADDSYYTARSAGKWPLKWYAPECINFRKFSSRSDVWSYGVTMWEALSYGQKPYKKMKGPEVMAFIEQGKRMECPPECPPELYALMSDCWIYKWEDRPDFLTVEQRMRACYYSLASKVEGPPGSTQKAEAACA

[8] = molecular target: Serine/threonine-protein kinase PLK2 (Homo sapiens) (UniProt Q9NYY3); experiment: Residual activity of SNK at 10 uM by microplate scintillation counting
Chain of Serine/threonine-protein kinase PLK2 (Homo sapiens) (Q9NYY3 whole entry, looked up): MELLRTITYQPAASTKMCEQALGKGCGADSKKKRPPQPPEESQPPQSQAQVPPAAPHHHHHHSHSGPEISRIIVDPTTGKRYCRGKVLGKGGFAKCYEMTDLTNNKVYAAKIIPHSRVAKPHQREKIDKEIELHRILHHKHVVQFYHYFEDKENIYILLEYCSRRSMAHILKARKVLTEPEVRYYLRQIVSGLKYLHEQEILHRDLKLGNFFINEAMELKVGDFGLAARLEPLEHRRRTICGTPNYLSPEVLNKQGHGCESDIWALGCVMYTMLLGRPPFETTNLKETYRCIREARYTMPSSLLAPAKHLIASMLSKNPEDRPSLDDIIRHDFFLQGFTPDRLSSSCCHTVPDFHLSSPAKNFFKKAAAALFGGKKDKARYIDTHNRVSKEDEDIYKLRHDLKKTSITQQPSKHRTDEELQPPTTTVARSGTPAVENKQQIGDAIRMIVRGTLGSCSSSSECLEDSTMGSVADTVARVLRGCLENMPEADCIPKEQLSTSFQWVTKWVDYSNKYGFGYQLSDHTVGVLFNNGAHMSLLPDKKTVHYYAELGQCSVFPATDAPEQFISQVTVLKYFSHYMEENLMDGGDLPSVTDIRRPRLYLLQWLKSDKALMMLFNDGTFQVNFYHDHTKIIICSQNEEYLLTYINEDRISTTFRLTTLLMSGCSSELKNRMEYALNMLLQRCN

Chain of Non-receptor tyrosine-protein kinase TYK2 (Homo sapiens) (P29597 whole entry): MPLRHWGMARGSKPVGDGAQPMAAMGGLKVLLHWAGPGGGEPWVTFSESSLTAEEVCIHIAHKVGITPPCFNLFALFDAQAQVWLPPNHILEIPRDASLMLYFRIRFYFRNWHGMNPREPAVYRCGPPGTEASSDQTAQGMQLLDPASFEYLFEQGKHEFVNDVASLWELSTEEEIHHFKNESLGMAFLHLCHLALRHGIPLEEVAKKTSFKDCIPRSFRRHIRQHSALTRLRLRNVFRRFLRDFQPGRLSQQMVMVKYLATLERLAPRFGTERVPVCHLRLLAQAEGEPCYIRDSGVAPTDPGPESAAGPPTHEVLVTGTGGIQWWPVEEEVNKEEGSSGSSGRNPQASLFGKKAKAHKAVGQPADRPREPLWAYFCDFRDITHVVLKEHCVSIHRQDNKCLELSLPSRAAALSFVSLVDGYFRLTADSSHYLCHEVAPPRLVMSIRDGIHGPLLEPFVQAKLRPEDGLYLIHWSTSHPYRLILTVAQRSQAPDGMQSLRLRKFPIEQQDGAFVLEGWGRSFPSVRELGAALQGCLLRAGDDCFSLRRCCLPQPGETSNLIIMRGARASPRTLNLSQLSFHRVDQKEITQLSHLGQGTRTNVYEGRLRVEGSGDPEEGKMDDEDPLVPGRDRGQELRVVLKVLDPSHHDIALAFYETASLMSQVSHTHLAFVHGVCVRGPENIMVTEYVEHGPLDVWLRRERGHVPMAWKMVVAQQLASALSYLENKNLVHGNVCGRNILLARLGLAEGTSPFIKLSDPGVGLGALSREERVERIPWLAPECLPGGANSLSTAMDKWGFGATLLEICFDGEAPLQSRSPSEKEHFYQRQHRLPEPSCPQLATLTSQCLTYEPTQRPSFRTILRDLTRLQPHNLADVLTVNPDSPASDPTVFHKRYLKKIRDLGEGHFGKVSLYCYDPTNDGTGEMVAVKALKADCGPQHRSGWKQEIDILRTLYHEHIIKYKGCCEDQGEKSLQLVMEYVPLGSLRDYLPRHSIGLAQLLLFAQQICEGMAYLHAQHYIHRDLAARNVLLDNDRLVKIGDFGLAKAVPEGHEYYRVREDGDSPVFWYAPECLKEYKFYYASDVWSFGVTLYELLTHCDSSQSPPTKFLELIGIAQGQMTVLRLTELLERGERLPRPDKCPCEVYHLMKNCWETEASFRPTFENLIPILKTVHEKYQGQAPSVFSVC

Row | residual activity [1] [%] | residual activity [2] [%] | residual activity [3] [%] | residual activity [4] [%] | residual activity [5] [%] | residual activity [6] [%] | residual activity [7] [%] | residual activity [8] [%] | SMILES
1 | 90 | 99 | 73 | 100 | 98 | 61 | 166 | 120 | COc1cc2c(Oc3ccc(-c4nc5ccccc5s4)cc3)ncnc2cc1OCCCN1CCCC1
2 | 93 | 69 | 61 | 102 | 87 | 74 | 341 | 108 | COc1cc2c(Oc3ccc(-c4nc5ccccc5s4)cc3)ncnc2cc1OCCCN1CCN(C)CC1
3 | 92 | 98 | 57 | 97 | 93 | 108 | 230 | 99 | COc1cc2c(Oc3ccc(-c4nc5ccccc5s4)cc3F)ncnc2cc1OCCCN1CCN(C)CC1
